According to patent US9006250B2, “4-amino-6-(heterocyclic)picolinates and 6-amino-2-(heterocyclic)pyrimidine-4-carboxylates and their use as herbicides” (Dow AgroSciences, LLC, priority 2013, dated 2015):

Test system: not given
Experiment: not given
Details: not given

SMILES | melting point
COC(=O)c1nc(-c2cc3nonc3cc2Cl)cc(N)c1Cl [Compound 8] | 224 to 226 °C

Test system: AMARE: redroot pigweed (Amaranthus retroflexus)
Experiment: Post-Emergent Test II herbicidal activity
Format: in vivo
Details: post-emergence, 336 h, 35 g ai/ha, 14 days, read-out: Visual Growth Reduction (%) 14 Days After Application AMARE
In short: (§1)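 Test species are sprayed post-emergence when they reach the first or second true leaf, using an aqueous acetone/DMSO spray with crop oil and surfactant delivered at 187 L/ha. Plants are kept in the greenhouse with subirrigation, and damage compared with untreated plants is rated visually at 14 d on a 0-100% scale.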

SMILES | pest or weed control at 35 g/ha
COC(=O)c1nc(-c2cc3nonc3cc2Cl)cc(N)c1Cl [Compound 8] | 0 to 29%

Same assay, conditions: post-emergence, 336 h, 70 g ai/ha, 14 days, read-out: Visual Growth Reduction (%) 14 Days After Application AMARE

SMILES | pest or weed control at 70 g/ha
COC(=O)c1nc(-c2cc3nonc3cc2Cl)cc(N)c1Cl [Compound 8] | 0 to 29%

Same assay, conditions: post-emergence, 336 h, 140 g ai/ha, 14 days, read-out: Visual Growth Reduction (%) 14 Days After Application AMARE

SMILES | pest or weed control at 140 g/ha
COC(=O)c1nc(-c2cc3nonc3cc2Cl)cc(N)c1Cl [Compound 8] | 0 to 29%

Test system: SETFA: giant foxtail (Setaria faberi)
Experiment: Post-Emergent Test II herbicidal activity
Format: in vivo
Details: post-emergence, 336 h, 35 g ai/ha, 14 days, read-out: Visual Growth Reduction (%) 14 Days After Application SETFA
In short: as §1

SMILES | pest or weed control at 35 g/ha
COC(=O)c1nc(-c2cc3nonc3cc2Cl)cc(N)c1Cl [Compound 8] | 0 to 29%

Same assay, conditions: post-emergence, 336 h, 70 g ai/ha, 14 days, read-out: Visual Growth Reduction (%) 14 Days After Application SETFA

SMILES | pest or weed control at 70 g/ha
COC(=O)c1nc(-c2cc3nonc3cc2Cl)cc(N)c1Cl [Compound 8] | 0 to 29%

Same assay, conditions: post-emergence, 336 h, 140 g ai/ha, 14 days, read-out: Visual Growth Reduction (%) 14 Days After Application SETFA

SMILES | pest or weed control at 140 g/ha
COC(=O)c1nc(-c2cc3nonc3cc2Cl)cc(N)c1Cl [Compound 8] | 0 to 29%

Test system: CYPES: yellow nutsedge (Cyperus esculentus)
Experiment: Post-Emergent Test II herbicidal activity
Format: in vivo
Details: post-emergence, 336 h, 35 g ai/ha, 14 days, read-out: Visual Growth Reduction (%) 14 Days After Application CYPES
In short: as §1

SMILES | pest or weed control at 35 g/ha
COC(=O)c1nc(-c2cc3nonc3cc2Cl)cc(N)c1Cl [Compound 8] | 0 to 29%

Same assay, conditions: post-emergence, 336 h, 70 g ai/ha, 14 days, read-out: Visual Growth Reduction (%) 14 Days After Application CYPES

SMILES | pest or weed control at 70 g/ha
COC(=O)c1nc(-c2cc3nonc3cc2Cl)cc(N)c1Cl [Compound 8] | 0 to 29%

Same assay, conditions: post-emergence, 336 h, 140 g ai/ha, 14 days, read-out: Visual Growth Reduction (%) 14 Days After Application CYPES

SMILES | pest or weed control at 140 g/ha
COC(=O)c1nc(-c2cc3nonc3cc2Cl)cc(N)c1Cl [Compound 8] | 0 to 29%

Test system: HELAN: sunflower (Helianthus annuus)
Experiment: Post-Emergent Test II herbicidal activity
Format: in vivo
Details: post-emergence, 336 h, 35 g ai/ha, 14 days, read-out: Visual Growth Reduction (%) 14 Days After Application HELAN
In short: as §1

SMILES | pest or weed control at 35 g/ha
COC(=O)c1nc(-c2cc3nonc3cc2Cl)cc(N)c1Cl [Compound 8] | 0 to 29%

Same assay, conditions: post-emergence, 336 h, 70 g ai/ha, 14 days, read-out: Visual Growth Reduction (%) 14 Days After Application HELAN

SMILES | pest or weed control at 70 g/ha
COC(=O)c1nc(-c2cc3nonc3cc2Cl)cc(N)c1Cl [Compound 8] | 0 to 29%

Same assay, conditions: post-emergence, 336 h, 140 g ai/ha, 14 days, read-out: Visual Growth Reduction (%) 14 Days After Application HELAN

SMILES | pest or weed control at 140 g/ha
COC(=O)c1nc(-c2cc3nonc3cc2Cl)cc(N)c1Cl [Compound 8] | 0 to 29%

Test system: BRSNN: oilseed rape, canola (Brassica napus)
Experiment: Post-Emergent Test II herbicidal activity
Format: in vivo
Details: post-emergence, 336 h, 35 g ai/ha, 14 days, read-out: Visual Growth Reduction (%) 14 Days After Application BRSNN
In short: as §1

SMILES | pest or weed control at 35 g/ha
COC(=O)c1nc(-c2cc3nonc3cc2Cl)cc(N)c1Cl [Compound 8] | 0 to 29%

Same assay, conditions: post-emergence, 336 h, 70 g ai/ha, 14 days, read-out: Visual Growth Reduction (%) 14 Days After Application BRSNN

SMILES | pest or weed control at 70 g/ha
COC(=O)c1nc(-c2cc3nonc3cc2Cl)cc(N)c1Cl [Compound 8] | 0 to 29%

Same assay, conditions: post-emergence, 336 h, 140 g ai/ha, 14 days, read-out: Visual Growth Reduction (%) 14 Days After Application BRSNN

SMILES | pest or weed control at 140 g/ha
COC(=O)c1nc(-c2cc3nonc3cc2Cl)cc(N)c1Cl [Compound 8] | 30 to 44%

Test system: EPHHL: wild poinsettia (Euphorbia heterophylla)
Experiment: Post-Emergent Test II herbicidal activity
Format: in vivo
Details: post-emergence, 336 h, 35 g ai/ha, 14 days, read-out: Visual Growth Reduction (%) 14 Days After Application EPHHL
In short: as §1

SMILES | pest or weed control at 35 g/ha
COC(=O)c1nc(-c2cc3nonc3cc2Cl)cc(N)c1Cl [Compound 8] | 0 to 29%

Same assay, conditions: post-emergence, 336 h, 70 g ai/ha, 14 days, read-out: Visual Growth Reduction (%) 14 Days After Application EPHHL

SMILES | pest or weed control at 70 g/ha
COC(=O)c1nc(-c2cc3nonc3cc2Cl)cc(N)c1Cl [Compound 8] | 0 to 29%

Same assay, conditions: post-emergence, 336 h, 140 g ai/ha, 14 days, read-out: Visual Growth Reduction (%) 14 Days After Application EPHHL

SMILES | pest or weed control at 140 g/ha
COC(=O)c1nc(-c2cc3nonc3cc2Cl)cc(N)c1Cl [Compound 8] | 0 to 29%

Test system: ECHCG: barnyardgrass (Echinochloa crus-galli)
Experiment: Post-Emergent Test II herbicidal activity
Format: in vivo
Details: post-emergence, 336 h, 35 g ai/ha, 14 days, read-out: Visual Growth Reduction (%) 14 Days After Application ECHCG
In short: as §1

SMILES | pest or weed control at 35 g/ha
COC(=O)c1nc(-c2cc3nonc3cc2Cl)cc(N)c1Cl [Compound 8] | 0 to 29%

Same assay, conditions: post-emergence, 336 h, 70 g ai/ha, 14 days, read-out: Visual Growth Reduction (%) 14 Days After Application ECHCG

SMILES | pest or weed control at 70 g/ha
COC(=O)c1nc(-c2cc3nonc3cc2Cl)cc(N)c1Cl [Compound 8] | 0 to 29%

Same assay, conditions: post-emergence, 336 h, 140 g ai/ha, 14 days, read-out: Visual Growth Reduction (%) 14 Days After Application ECHCG

SMILES | pest or weed control at 140 g/ha
COC(=O)c1nc(-c2cc3nonc3cc2Cl)cc(N)c1Cl [Compound 8] | 0 to 29%

Test system: ORYSA: rice (Oryza sativa)
Experiment: Post-Emergent Test II herbicidal activity
Format: in vivo
Details: post-emergence, 336 h, 35 g ai/ha, 14 days, read-out: Visual Growth Reduction (%) 14 Days After Application ORYSA
In short: as §1

SMILES | pest or weed control at 35 g/ha
COC(=O)c1nc(-c2cc3nonc3cc2Cl)cc(N)c1Cl [Compound 8] | 0 to 29%

Same assay, conditions: post-emergence, 336 h, 70 g ai/ha, 14 days, read-out: Visual Growth Reduction (%) 14 Days After Application ORYSA

SMILES | pest or weed control at 70 g/ha
COC(=O)c1nc(-c2cc3nonc3cc2Cl)cc(N)c1Cl [Compound 8] | 0 to 29%

Same assay, conditions: post-emergence, 336 h, 140 g ai/ha, 14 days, read-out: Visual Growth Reduction (%) 14 Days After Application ORYSA

SMILES | pest or weed control at 140 g/ha
COC(=O)c1nc(-c2cc3nonc3cc2Cl)cc(N)c1Cl [Compound 8] | 0 to 29%

Test system: CHEAL: lambsquarters (Chenopodium album)
Experiment: Post-Emergent Test II herbicidal activity
Format: in vivo
Details: post-emergence, 336 h, 35 g ai/ha, 14 days, read-out: Visual Growth Reduction (%) 14 Days After Application CHEAL
In short: as §1

SMILES | pest or weed control at 35 g/ha
COC(=O)c1nc(-c2cc3nonc3cc2Cl)cc(N)c1Cl [Compound 8] | 0 to 29%

Same assay, conditions: post-emergence, 336 h, 70 g ai/ha, 14 days, read-out: Visual Growth Reduction (%) 14 Days After Application CHEAL

SMILES | pest or weed control at 70 g/ha
COC(=O)c1nc(-c2cc3nonc3cc2Cl)cc(N)c1Cl [Compound 8] | 0 to 29%

Same assay, conditions: post-emergence, 336 h, 140 g ai/ha, 14 days, read-out: Visual Growth Reduction (%) 14 Days After Application CHEAL

SMILES | pest or weed control at 140 g/ha
COC(=O)c1nc(-c2cc3nonc3cc2Cl)cc(N)c1Cl [Compound 8] | 0 to 29%

Test system: ABUTH: velvetleaf (Abutilon theophrasti)
Experiment: Post-Emergent Test II herbicidal activity
Format: in vivo
Details: post-emergence, 336 h, 35 g ai/ha, 14 days, read-out: Visual Growth Reduction (%) 14 Days After Application ABUTH
In short: as §1

SMILES | pest or weed control at 35 g/ha
COC(=O)c1nc(-c2cc3nonc3cc2Cl)cc(N)c1Cl [Compound 8] | 0 to 29%

Same assay, conditions: post-emergence, 336 h, 70 g ai/ha, 14 days, read-out: Visual Growth Reduction (%) 14 Days After Application ABUTH

SMILES | pest or weed control at 70 g/ha
COC(=O)c1nc(-c2cc3nonc3cc2Cl)cc(N)c1Cl [Compound 8] | 0 to 29%

Same assay, conditions: post-emergence, 336 h, 140 g ai/ha, 14 days, read-out: Visual Growth Reduction (%) 14 Days After Application ABUTH

SMILES | pest or weed control at 140 g/ha
COC(=O)c1nc(-c2cc3nonc3cc2Cl)cc(N)c1Cl [Compound 8] | 0 to 29%

Test system: TRZAS: wheat, spring (Triticum aestivum)
Experiment: Post-Emergent Test II herbicidal activity
Format: in vivo
Details: post-emergence, 336 h, 35 g ai/ha, 14 days, read-out: Visual Growth Reduction (%) 14 Days After Application TRZAS
In short: as §1

SMILES | pest or weed control at 35 g/ha
COC(=O)c1nc(-c2cc3nonc3cc2Cl)cc(N)c1Cl [Compound 8] | 0 to 29%

Same assay, conditions: post-emergence, 336 h, 70 g ai/ha, 14 days, read-out: Visual Growth Reduction (%) 14 Days After Application TRZAS

SMILES | pest or weed control at 70 g/ha
COC(=O)c1nc(-c2cc3nonc3cc2Cl)cc(N)c1Cl [Compound 8] | 0 to 29%

Same assay, conditions: post-emergence, 336 h, 140 g ai/ha, 14 days, read-out: Visual Growth Reduction (%) 14 Days After Application TRZAS

SMILES | pest or weed control at 140 g/ha
COC(=O)c1nc(-c2cc3nonc3cc2Cl)cc(N)c1Cl [Compound 8] | 0 to 29%

Test system: ZEAMX: maize, corn (Zea mays)
Experiment: Post-Emergent Test II herbicidal activity
Format: in vivo
Details: post-emergence, 336 h, 35 g ai/ha, 14 days, read-out: Visual Growth Reduction (%) 14 Days After Application ZEAMX
In short: as §1

SMILES | pest or weed control at 35 g/ha
COC(=O)c1nc(-c2cc3nonc3cc2Cl)cc(N)c1Cl [Compound 8] | 0 to 29%

Same assay, conditions: post-emergence, 336 h, 70 g ai/ha, 14 days, read-out: Visual Growth Reduction (%) 14 Days After Application ZEAMX

SMILES | pest or weed control at 70 g/ha
COC(=O)c1nc(-c2cc3nonc3cc2Cl)cc(N)c1Cl [Compound 8] | 0 to 29%

Same assay, conditions: post-emergence, 336 h, 140 g ai/ha, 14 days, read-out: Visual Growth Reduction (%) 14 Days After Application ZEAMX

SMILES | pest or weed control at 140 g/ha
COC(=O)c1nc(-c2cc3nonc3cc2Cl)cc(N)c1Cl [Compound 8] | 0 to 29%
